The results in this text go back to US11945812B2, “Annulated 2-amino-3-cyano thiophenes and derivatives for the treatment of cancer” (Boehringer Ingelheim International GmbH, priority 2020, dated 2024).

Data set [1] can be described thus: Plasma protein binding (equilibrium dialysis), mouse plasma. In kind it is in vitro ADME. The conditions noted are these: read-out: PPB mouse fu.
Data set [2] concerns the target Ba/F3 cells bearing a KRAS G12C mutation (Homo sapiens, UniProt P01116, G12C, cells depend on it). Put plainly: Ba/F3 cell model proliferation assay (AlamarBlue, 72 h). Type of data set: cell-based.
Another data set has as its system NCI-H358 cells. Put plainly: NCI-H358 CTG proliferation assay (120 h) (NSCLC). Conditions: Homo sapiens, read-out: IC50 NCl-H358. In kind it is cell-based. The protocol:
NCI-H358 CTG Proliferation Assay (120 h) (NSCLC)
NCI-H358 cells (ATCC No. CRL-5807) were dispensed into white bottom opaque 96 well plates (Perkin Elmer cat no. 5680) at a density of 2000 cells per well in 100 μL RPMI-1640 ATCC-Formulation (Gibco # A10491)+10% FCS. Cells were incubated overnight at 37° C. in a humidified tissue culture incubator at 5% CO2. Compounds (10 mM stock in DMSO) were added at logarithmic dose series using the HP Digital Dispenser D300 (Tecan), normalizing for added DMSO. For the TO time point measurement, untreated cells were analyzed at the time of compound addition. Plates were incubated for 120 hours, and cell viability was measured using CellTiter-Glo luminescent cell viability reagent (Promega product code G7570). Viability (stated as percent of control) is defined as relative luminescence units RLU of each well divided by the RLU of cells in DMSO controls. IC50 values were determined from viability measurements by non-linear regression using a four parameter model.

For data set [3], the target named is T1, KRAS G12C::SOS1 protein-protein interaction (Homo sapiens, UniProt P01116, C118S/C51S/C80L/G12C).
T1 construct: His6 (N); host or cells: E. coli
T1 sequence (P01116 1-169 isoform P01116-2 G12C/C51S/C80L/C118S): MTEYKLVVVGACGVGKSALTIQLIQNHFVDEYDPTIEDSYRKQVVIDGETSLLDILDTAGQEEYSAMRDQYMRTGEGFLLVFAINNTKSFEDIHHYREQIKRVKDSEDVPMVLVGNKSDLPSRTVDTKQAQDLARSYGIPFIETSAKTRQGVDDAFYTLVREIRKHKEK
Put plainly: KRAS::SOS1 AlphaScreen binding assay. The conditions noted are these: KRAS G12C::SOS1 AlphaScreen.

Where [4] appears, read: Ba/F3 KRAS G12C cells, 72 h, 10% FCS, uncorrected, read-out: IC50 Ba/F3 KRASG12C.
The mark [5] stands for this setting: corrected by plasma protein binding in 10% FCS (fraction unbound), read-out: IC50 Ba/F3 KRASG12C (corrected).

Read-outs that look alike come from different tables or passages of the source.

Chain of Ba/F3 cells bearing a KRAS G12C mutation (P01116 whole entry G12C): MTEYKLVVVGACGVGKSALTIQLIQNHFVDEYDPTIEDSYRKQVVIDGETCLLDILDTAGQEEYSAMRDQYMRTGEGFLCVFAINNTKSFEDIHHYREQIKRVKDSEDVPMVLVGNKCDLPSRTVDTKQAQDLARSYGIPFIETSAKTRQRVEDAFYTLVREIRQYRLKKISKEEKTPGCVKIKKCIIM

For the molecule `C=CC(=O)N1CCN(c2cc(O[C@@H](C)[C@@H]3CCCN3C)nc(-c3cc([C@@]4(C)CCCc5sc(N)c(C#N)c54)sn3)n2)CC12CC2` [Id-5], in data set [1], the fraction unbound is 0.003. Further, the values for the GI50 in data set [2] (setting [4]) and in data set [2] (setting [5]) were 3.2 nM and 1.08 nM, respectively. Also, the IC50 is 5.98 nM in the data set with NCI-H358 cells and 1.7 nM in data set [3].
On to `C=CC(=O)N1CCC(Oc2cc(O[C@@H](C)[C@@H]3CCCN3C)nc(-c3cc([C@@]4(C)CCCc5sc(N)c(C#N)c54)sn3)n2)CC1` [Id-6], for which the fraction unbound in data set [1] turned out to be 0.003. Also, the GI50 in data set [2] (setting [4]) came to 0.2 nM; in data set [2] (setting [5]), 0.1 nM. Moreover, the IC50 is 0.93 nM in the data set on NCI-H358 cells and 1.6 nM in data set [3].
